Experiment: excess molar enthalpy (molar enthalpy of mixing); xn = mol fraction of the nth substance listed
Details: 298.15 K, 100 kPa

C=COC(C)=O + COC(=O)OC
Details	excess molar enthalpy [kcal/mol]
x2 = 0.0437	-0.001
x2 = 0.0838	-0.00268
x2 = 0.1207	-0.0039
x2 = 0.1546	-0.00507
x2 = 0.2153	-0.00722
x2 = 0.2679	-0.00872
x2 = 0.3544	-0.0104
x2 = 0.4226	-0.0111
x2 = 0.5233	-0.0111
x2 = 0.6222	-0.0103
x2 = 0.8145	-0.00571
x2 = 0.8682	-0.00361
x2 = 0.8978	-0.00253
x2 = 0.9294	-0.00143
x2 = 0.9634	-0.000645

CCCCCCOC(C)=O + COC(=O)OC
Details	excess molar enthalpy [kcal/mol]
x2 = 0.0755	0.0206
x2 = 0.1404	0.0382
x2 = 0.2462	0.0688
x2 = 0.3289	0.0899
x2 = 0.3951	0.104
x2 = 0.4949	0.116
x2 = 0.5665	0.12
x2 = 0.7462	0.101
x2 = 0.7967	0.0903
x2 = 0.8546	0.0698
x2 = 0.9216	0.0406
x2 = 0.94	0.0304
x2 = 0.9522	0.0261

CCCCCOC(C)=O + COC(=O)OC
Details	excess molar enthalpy [kcal/mol]
x2 = 0.0684	0.0139
x2 = 0.128	0.0272
x2 = 0.1804	0.0392
x2 = 0.2269	0.0502
x2 = 0.3057	0.0669
x2 = 0.3699	0.0808
x2 = 0.54	0.0954
x2 = 0.6378	0.093
x2 = 0.7254	0.0815
x2 = 0.7789	0.0722
x2 = 0.8409	0.0571
x2 = 0.8757	0.0476
x2 = 0.9337	0.0263
x2 = 0.9548	0.0179
x2 = 0.9769	0.00908

CCCCOC(C)=O + COC(=O)OC
Details	excess molar enthalpy [kcal/mol]
x2 = 0.0612	0.0117
x2 = 0.1153	0.022
x2 = 0.1636	0.0313
x2 = 0.2068	0.0397
x2 = 0.2812	0.0509
x2 = 0.3428	0.0586
x2 = 0.4389	0.0667
x2 = 0.5105	0.0688
x2 = 0.7578	0.0554
x2 = 0.8112	0.0454
x2 = 0.8622	0.0361
x2 = 0.9037	0.0263
x2 = 0.926	0.0203
x2 = 0.9494	0.0143
x2 = 0.9741	0.00765

CCCOC(C)=O + COC(=O)OC
Details	excess molar enthalpy [kcal/mol]
x2 = 0.0538	0.00789
x2 = 0.1021	0.0143
x2 = 0.1457	0.0196
x2 = 0.1853	0.0249
x2 = 0.2544	0.0311
x2 = 0.3127	0.0361
x2 = 0.4056	0.0413
x2 = 0.4764	0.0437
x2 = 0.5771	0.044
x2 = 0.6718	0.0409
x2 = 0.8912	0.0174
x2 = 0.9161	0.0134

CCOC(C)=O + COC(=O)OC
Details	excess molar enthalpy [kcal/mol]
x2 = 0.0426	0.00177
x2 = 0.0883	0.00289
x2 = 0.1269	0.00413
x2 = 0.1623	0.00504
x2 = 0.2252	0.00626
x2 = 0.3677	0.00832
x2 = 0.5376	0.00975
x2 = 0.6356	0.00956
x2 = 0.7772	0.00755
x2 = 0.823	0.00667
x2 = 0.9029	0.00406
x2 = 0.9331	0.00284
x2 = 0.9654	0.00146

COC(C)=O + COC(=O)OC
Details	excess molar enthalpy [kcal/mol]
x2 = 0.0729	-0.000191
x2 = 0.1055	-0.000574
x2 = 0.1359	-0.0011
x2 = 0.2393	-0.00237
x2 = 0.3206	-0.00289
x2 = 0.3862	-0.00313
x2 = 0.586	-0.00232
x2 = 0.739	-0.00098
x2 = 0.7906	-0.000669
x2 = 0.8499	-9.56e-05
x2 = 0.883	0.000167
x2 = 0.9189	0.000454
x2 = 0.9577	0.000215

From a compilation of properties of binary mixtures (doi:10.1021/je970101l)
